IC50 data for 29 compounds are collected here from US10968215B2 (SHANGHAI HAIHE PHARMACEUTICAL CO., LTD., priority 2016, dated 2021).

The target in the first assay is PRC2 complex (EZH2 Y641F/EED/SUZ12/RbAp48/AEBP2) (Homo sapiens (Human), UniProt Q15910, Y641F). The assay can be described thus: Activity of a compound to PRC2 complex (EZH2 Y641F), HTRF.
PRC2 complex (EZH2 Y641F/EED/SUZ12/RbAp48/AEBP2), sequence (Q15910 whole entry Y641F): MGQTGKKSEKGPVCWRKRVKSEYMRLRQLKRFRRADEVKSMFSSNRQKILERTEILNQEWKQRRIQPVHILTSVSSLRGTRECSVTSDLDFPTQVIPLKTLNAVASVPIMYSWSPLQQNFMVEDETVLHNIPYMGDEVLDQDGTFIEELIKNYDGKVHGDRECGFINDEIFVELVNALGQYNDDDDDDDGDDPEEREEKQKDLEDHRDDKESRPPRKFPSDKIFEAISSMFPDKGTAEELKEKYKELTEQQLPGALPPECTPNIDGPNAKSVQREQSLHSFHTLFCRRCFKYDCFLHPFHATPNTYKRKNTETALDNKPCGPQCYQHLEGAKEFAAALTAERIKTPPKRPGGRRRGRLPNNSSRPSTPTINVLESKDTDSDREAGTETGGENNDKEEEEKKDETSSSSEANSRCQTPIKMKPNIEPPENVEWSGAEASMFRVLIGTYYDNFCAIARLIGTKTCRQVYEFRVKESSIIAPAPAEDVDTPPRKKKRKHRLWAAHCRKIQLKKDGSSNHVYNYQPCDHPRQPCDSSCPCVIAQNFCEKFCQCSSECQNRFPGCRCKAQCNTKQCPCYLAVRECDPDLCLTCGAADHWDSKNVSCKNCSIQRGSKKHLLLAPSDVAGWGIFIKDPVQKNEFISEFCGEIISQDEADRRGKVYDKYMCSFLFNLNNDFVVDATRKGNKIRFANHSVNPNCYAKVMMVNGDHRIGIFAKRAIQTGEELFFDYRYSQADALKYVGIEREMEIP
PRC2 complex (EZH2 Y641F/EED/SUZ12/RbAp48/AEBP2), sequence (O75530 whole entry partner): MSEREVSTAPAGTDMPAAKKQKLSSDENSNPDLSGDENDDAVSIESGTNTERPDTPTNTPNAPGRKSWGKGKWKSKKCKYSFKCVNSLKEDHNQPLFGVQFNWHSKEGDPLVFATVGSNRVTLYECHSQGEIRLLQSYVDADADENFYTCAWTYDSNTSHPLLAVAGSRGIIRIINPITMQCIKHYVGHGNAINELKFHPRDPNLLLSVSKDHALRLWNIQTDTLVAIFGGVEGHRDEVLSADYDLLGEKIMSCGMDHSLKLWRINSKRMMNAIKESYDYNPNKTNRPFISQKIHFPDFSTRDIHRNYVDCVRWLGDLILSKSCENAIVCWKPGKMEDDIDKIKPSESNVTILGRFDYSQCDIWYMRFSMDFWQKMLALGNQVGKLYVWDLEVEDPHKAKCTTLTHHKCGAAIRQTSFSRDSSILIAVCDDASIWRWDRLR
PRC2 complex (EZH2 Y641F/EED/SUZ12/RbAp48/AEBP2), sequence (Q15022 whole entry partner): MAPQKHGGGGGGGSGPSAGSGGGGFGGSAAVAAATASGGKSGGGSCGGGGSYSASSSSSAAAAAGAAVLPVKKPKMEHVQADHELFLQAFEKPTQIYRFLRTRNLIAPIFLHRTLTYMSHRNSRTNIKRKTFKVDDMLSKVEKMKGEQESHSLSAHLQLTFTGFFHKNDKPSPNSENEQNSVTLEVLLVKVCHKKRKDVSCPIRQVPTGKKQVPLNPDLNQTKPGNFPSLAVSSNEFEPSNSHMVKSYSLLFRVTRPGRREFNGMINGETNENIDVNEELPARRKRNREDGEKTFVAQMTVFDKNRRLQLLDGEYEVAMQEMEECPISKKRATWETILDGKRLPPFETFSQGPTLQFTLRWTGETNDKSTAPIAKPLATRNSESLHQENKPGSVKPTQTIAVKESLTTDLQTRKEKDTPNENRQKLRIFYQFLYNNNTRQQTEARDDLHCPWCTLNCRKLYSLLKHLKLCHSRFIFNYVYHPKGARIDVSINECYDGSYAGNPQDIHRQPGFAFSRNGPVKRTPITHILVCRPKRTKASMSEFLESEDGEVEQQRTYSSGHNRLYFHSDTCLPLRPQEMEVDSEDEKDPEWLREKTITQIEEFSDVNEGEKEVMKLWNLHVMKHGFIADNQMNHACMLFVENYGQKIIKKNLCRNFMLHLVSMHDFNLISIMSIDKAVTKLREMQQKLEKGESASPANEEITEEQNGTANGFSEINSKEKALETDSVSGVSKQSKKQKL
PRC2 complex (EZH2 Y641F/EED/SUZ12/RbAp48/AEBP2), sequence (Q09028 whole entry partner): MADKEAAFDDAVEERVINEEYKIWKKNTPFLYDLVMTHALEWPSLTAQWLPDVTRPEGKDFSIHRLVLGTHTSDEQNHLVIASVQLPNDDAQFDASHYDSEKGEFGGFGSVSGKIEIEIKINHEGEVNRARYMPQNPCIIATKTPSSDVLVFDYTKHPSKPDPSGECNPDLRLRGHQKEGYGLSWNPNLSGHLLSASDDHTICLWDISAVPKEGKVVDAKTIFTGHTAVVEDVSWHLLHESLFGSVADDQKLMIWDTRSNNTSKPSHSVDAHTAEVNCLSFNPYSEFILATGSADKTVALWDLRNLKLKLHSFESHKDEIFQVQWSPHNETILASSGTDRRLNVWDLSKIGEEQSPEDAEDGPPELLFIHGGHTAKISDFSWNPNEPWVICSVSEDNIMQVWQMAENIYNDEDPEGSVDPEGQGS
PRC2 complex (EZH2 Y641F/EED/SUZ12/RbAp48/AEBP2), sequence (Q6ZN18 whole entry partner): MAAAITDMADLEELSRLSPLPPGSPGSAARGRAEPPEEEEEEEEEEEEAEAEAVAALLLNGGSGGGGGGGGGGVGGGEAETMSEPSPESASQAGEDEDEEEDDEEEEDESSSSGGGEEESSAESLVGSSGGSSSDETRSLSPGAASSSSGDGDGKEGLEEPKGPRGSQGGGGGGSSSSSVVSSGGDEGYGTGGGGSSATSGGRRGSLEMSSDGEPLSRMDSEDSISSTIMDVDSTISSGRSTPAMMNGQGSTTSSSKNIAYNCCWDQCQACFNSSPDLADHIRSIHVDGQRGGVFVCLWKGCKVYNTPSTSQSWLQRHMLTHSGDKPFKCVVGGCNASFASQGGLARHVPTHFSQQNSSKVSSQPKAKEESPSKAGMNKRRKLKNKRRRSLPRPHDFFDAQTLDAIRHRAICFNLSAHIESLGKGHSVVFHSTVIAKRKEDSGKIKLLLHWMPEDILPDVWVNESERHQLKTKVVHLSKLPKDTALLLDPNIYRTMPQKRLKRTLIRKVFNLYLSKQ
Settings: not given
As for `CCN(c1c(C)c(C(=O)NCc2c(C)cc(C)[nH]c2=O)cc2cc(-c3cn(C)cn3)cn12)C1CCOCC1` [Example 73, N-((4,6-dimethyl-2-oxo-1,2-dihydropyridin-3-yl)methyl)-5-(ethyl(tetrahydro-2H-pyran-4-yl)amino)-6-methyl-2-(1-methyl-1H-imidazol-4-yl)indolizin-7-carboxamide], the half-maximal inhibitory concentration (IC50) is less than 0.1 µM.

For the compound `Cc1cc(C)c(CNC(=O)c2cc3cc(-c4cn(C)cn4)cn3c(C(C)N3CCOCC3)c2C)c(=O)[nH]1` (centres unmarked) [Example 52, N-((4,6-dimethyl-2-oxo-1,2-dihydropyridin-3-yl)methyl)-6-methyl-2-(1-methyl-1H-imidazole-4-yl)-5-(1-morpholineylethyl)indolizine-7-carboxamide], the IC50 is 0.1 to 1 µM.

As to `COC1CCN(C(C)c2c(C)c(C(=O)NCc3c(C)cc(C)[nH]c3=O)cc3cc(Br)cn23)CC1` (centres unmarked) [Example 143, 2-Bromo-N-((4,6-dimethyl-2-oxo-1,2-dihydropyridin-3-yl)methyl)-6-methyl-5-(1-(4-methoxypiperidin-1-yl)ethyl)indolizine-7-carboxamide], the half-inhibitory concentration (IC50) lay in the range of 0.1 to 1 µM.

As to `CCN(c1c(C)c(C(=O)NCc2c(C)cc(C)[nH]c2=O)cc2cccn12)C1CCOCC1` [Example 56, N-((4,6-dimethyl-2-oxo-1,2-dihydropyridin-3-yl)methyl)-6-methyl-5-(ethyl(tetrahydro-2H-pyran-4-yl)amino)indolizine-7-carboxamide], the IC50 is less than 0.1 µM.

Turning to `CCc1cc(-c2ccn3c(C(C)N4CCN(CC(F)(F)F)CC4)c(C)c(C(=O)NCc4c(OC)cc(C)[nH]c4=O)cc23)ccn1` (centres unmarked) [Compound 205, 1-(2-ethylpyridin-4-yl)-N-((4-methoxy-6-methyl-2-oxo-1,2-dihydropyridin-3-yl)methyl)-6-methyl-5-(1-(4-(2,2,2-trifluoroethyl)piperazin-1-yl)ethyl)indolizine-7-carboxamide], the 50% inhibitory concentration (IC50) was less than 0.1 µM.

As for `Cc1cc(C)c(CNC(=O)c2cc3cc(-c4cncs4)cn3c(C(C)N3CCC(N(C)C)CC3)c2C)c(=O)[nH]1` (centres unmarked) [Example 139], the concentration for half-maximal inhibition (IC50) is less than 0.1 µM.

Staying with this assay, now noted: read-out: IC50 (EZH2_Y641F); EZH2 Y641F PRC2 complex, HTRF; class symbols.
For the compound `Cc1cc(C)c(CNC(=O)c2cc3cc(Br)cn3c(C(C)N3CCC(N4CCCC4)CC3)c2C)c(=O)[nH]1` (centres unmarked) [Example 144, 2-bromo-N-((4,6-dimethyl-2-oxo-1,2-dihydropyridin-3-yl)methyl)-5-(1-(4-hydroxypiperidin-1-yl)ethyl)-6-indolizine-7-carboxamide], the concentration for half-maximal inhibition (IC50) fell in the range of 0.1 to 1 µM.

Take `CCN(c1c(C)c(C(=O)NCc2c(C)cc(C)[nH]c2=O)cc2cc(-c3ccnn3C)cn12)C1CCOCC1` [Example 65, N-((4,6-dimethyl-2-oxo-1,2-dihydropyridin-3-yl)methyl)-5-(ethyl(tetrahydro-2H-pyran-4-yl)amino)-6-methyl-2-(1-methyl-1H-pyrazol-5-yl)indolizin-7-carboxamide]: the IC50 was less than 0.1 µM.

Take `Cc1cc(C)c(CNC(=O)c2cc3cc(-c4ccc5c(c4)OCO5)cn3c(C(C)N3CCOCC3)c2C)c(=O)[nH]1` (centres unmarked) [Example 31, 2-(benzo[d][1,3]dioxol-5-yl)-N-((4,6-dimethyl-2-oxo-1,2-dihydropyridine-3-yl)methyl)-6-methyl-5-(1-morphinolinylethyl)indolizin-7-carboxamide]: the IC50 lay within 0.1 to 1 µM.

Consider `COC(c1ccc(Br)cc1)c1c(C)c(C(=O)NCc2c(C)cc(C)[nH]c2=O)cc2cccn12` (centres unmarked) [Example 24, 5-((4-bromophenyl)(methoxy)methyl)-N-((4,6-dimethyl-2-oxo-1,2-dihydropyridin-3-yl)methyl)-6-methylindolizine-7-carboxamide], for which the 50% inhibitory concentration (IC50) was greater than 10 µM.

With `Cc1cc(C)c(CNC(=O)c2cc3cc(-c4cnn(C5CCNCC5)c4)cn3c(C(C)N3CCOCC3)c2C)c(=O)[nH]1` (centres unmarked) [Example 44, N-((4,6-dimethyl-2-oxo-1,2-dihydropyridin-3-yl)methyl)-6-methyl-5-(1-morphinolinylethyl)-2-(1-(piperidin-4-yl)-1H-pyrazol-4-yl)indolizine-7-carboxamide], the IC50 is less than 0.1 µM.

As to `COc1cc(C)[nH]c(=O)c1CNC(=O)c1cc2cc(-c3cncs3)cn2c(C(C)N2CCN(CC(F)(F)F)CC2)c1C` (centres unmarked) [Example 142, N-((4-methoxy-6-methyl-2-oxo-1,2-dihydropyridin-3-yl)methyl)-6-methyl-2-(thiazole-5-yl)-5-(1-(4-(2,2,2-trifluoroethyl)piperazin-1-yl)ethyl)indolizine-7-carboxamide], the IC50 is less than 0.1 µM.

For `CCN(c1c(C)c(C(=O)NCc2c(OC)cc(C)[nH]c2=O)cc2c(-c3ccnc(N(C)C)c3)ncn12)C1CCN(CC(F)(F)F)CC1` [Compound 204, 1-(2-(dimethylamino)pyridin-4-yl)-5-(ethyl(1-(2,2,2-trifluoroethyl)piperidin-4-yl)amino)-N-((4-methoxy-6-methyl-2-oxo-1,2-dihydropyridin-3-yl)methyl)-6-methylimidazo[1,5-a]pyridine-7-carboxamide], the 50% inhibitory concentration (IC50) was less than 0.1 µM.

For the compound `Cc1cc(C)c(CNC(=O)c2cc3cccn3c(C(O)c3ccc(Br)cc3)c2C)c(=O)[nH]1` (centres unmarked) [Example 23, 5-((4-bromophenyl)(hydroxy)methyl)-N-((4,6-dimethyl-2-oxo-1,2-dihydropyridin-3-yl)methyl)-6-methylindolizine-7-carboxamide], the IC50 fell in the range of 0.1 to 1 µM.

Take `Cc1cc(C)c(CNC(=O)c2cc3cc(Br)cn3c(C(C)N3CCN(CCC(F)(F)F)CC3)c2C)c(=O)[nH]1` (centres unmarked) [Example 104]: the half-maximal inhibitory concentration (IC50) is 0.1 to 1 µM.

Consider `COc1cc(C)[nH]c(=O)c1CNC(=O)c1cc2c(-c3ccccc3)ccn2c(C(C)N2CCOCC2)c1C` (centres unmarked) [Example 131, N-((4-methoxy-6-methyl-2-oxo-1,2-dihydropyridin-3-yl)methyl)-6-methyl-5-(1-morpholinylethyl)-1-phenylindolizine-7-carboxamide], for which the half-maximal inhibitory concentration (IC50) was less than 0.1 µM.

Take `CCN(c1c(C)c(C(=O)NCc2c(C)cc(C)[nH]c2=O)cc2cc(-c3cnn(C)c3)cn12)C1CCOCC1` [Example 66, N-((4,6-dimethyl-2-oxo-1,2-dihydropyridin-3-yl)methyl)-5-(ethyl(tetrahydro-2H-pyran-4-yl)amino)-6-methyl-2-(1-methyl-1H-pyrazol-4-yl)indolizin-7-carboxamide]: the 50% inhibitory concentration (IC50) was less than 0.1 µM.

Consider `Cc1cc(C)c(CNC(=O)c2cc3cncn3c(C(C)N3CCOCC3)c2C)c(=O)[nH]1` (centres unmarked) [Example 71, N-((4,6-dimethyl-2-oxo-1,2-dihydropyridin-3-yl)methyl)-6-methyl-5-(1-morphinolinylethyl)imidazo[1,5-a]pyridine-7-carboxamide], for which the IC50 was less than 0.1 µM.

As for `COc1cc(C)[nH]c(=O)c1CNC(=O)c1cc2c(-c3ccnc(C(C)C)c3)ccn2c(C(C)N2CCN(CC(F)(F)F)CC2)c1C` (centres unmarked) [Compound 206, 1-(2-isopropylpyridin-4-yl)-N-((4-methoxy-6-methyl-2-oxo-1,2-dihydropyridin-3-yl)methyl)-6-methyl-5-(1-(4-(2,2,2-trifluoroethyl)piperazin-1-yl)ethyl)indolizine-7-carboxamide], the IC50 is less than 0.1 µM.

For `Cc1cc(C)c(CNC(=O)c2cc3cc(Cl)cn3c(C(C)N3CCC(N(C)C)CC3)c2C)c(=O)[nH]1` (centres unmarked) [Example 70], the 50% inhibitory concentration (IC50) is less than 0.1 µM.

Take `COC(C)c1c(C)c(C(=O)NCc2c(C)cc(C)[nH]c2=O)cc2cccn12` (centres unmarked) [Example 1, N-((4,6-Dimethyl-2-oxo-1,2-dihydropyridin-3-yl)methyl)-5-(1-methoxyethyl)-6-methylindolizine-7-carboxamide]: the IC50 fell in the range of 0.1 to 1 µM.

As to `COc1cc(C)[nH]c(=O)c1CNC(=O)c1cc2c(-c3ccc(C)nc3C)ccn2c(C(C)N2CCN(CC(F)(F)F)CC2)c1C` (centres unmarked) [Compound 176], the 50% inhibitory concentration (IC50) is less than 0.1 µM.

Turning to `Cc1cc(C)c(CNC(=O)c2cc3cc(-c4ccn(C)n4)cn3c(C(C)N3CCC(N(C)C)CC3)c2C)c(=O)[nH]1` (centres unmarked) [Example 76], the IC50 was 0.1 to 1 µM.

In the case of `COc1cccc(-c2cc3cc(C(=O)NCc4c(C)cc(C)[nH]c4=O)c(C)c(C(C)N4CCOCC4)n3c2)c1` (centres unmarked) [Example 95], the concentration for half-maximal inhibition (IC50) is less than 0.1 µM.

For `Cc1cc(C)c(CNC(=O)c2cc3c(-c4ccccc4)ccn3c(C(C)N3CCOCC3)c2C)c(=O)[nH]1` (centres unmarked) [Example 82, N-((4,6-dimethyl-2-oxo-1,2-dihydropyridin-3-yl)methyl)-6-methyl-5-(1-morphinolinylethyl)-1-phenylindolizine-7-carboxamide], the IC50 is less than 0.1 µM.

Regarding `COc1c(CNC(=O)c2cc3c(-c4ccc(N)nc4)ccn3c(C(C)N3CCN(CC(F)(F)F)CC3)c2C)c(=O)[nH]n1C` (centres unmarked) [Compound 187, 1-(6-aminopyridin-3-yl)-N-((5-methoxy-1-methyl-3-oxo-2,3-dihydro-1H-pyrazole-4-yl)methyl)-6-methyl-5-(1-(4-(2,2,2-trifluoroethyl)piperazin-1-yl)ethyl)indolizine-7-carboxamide], the half-inhibitory concentration (IC50) was less than 0.1 µM.

Regarding `Cc1cc(C)c(CNC(=O)c2cc3cc(-c4cn(C)cn4)cn3c(C(C)N3CCOCC3)c2C)c(=O)[nH]1` (centres unmarked) [Example 51, N-((4,6-dimethyl-2-oxo-1,2-dihydropyridin-3-yl)methyl)-6-methyl-5-(1-morphinolinylethyl)-2-(pyridin-2-yl)indolizine-7-carboxamide], the IC50 is less than 0.1 µM.

For the compound `COc1cc(C)[nH]c(=O)c1CNC(=O)c1cc2c(-c3cnc(C)nc3)ccn2c([C@H](C)N2CCN(CC(F)(F)F)CC2)c1C` (single isomer, unassigned) [Compound 198, (S)—N-((4-methoxy-6-methyl-2-oxo-1,2-dihydropyridin-3-yl)methyl)-6-methyl-1-(2-methylpyrimidin-5-yl)-5-(1-(4-(2,2,2-trifluoroethyl)piperazin-1-yl)ethyl)indolizine-7-formamide or (R)—N-((4-methoxy-6-methyl-2-oxo-1,2-dihydropyridin-3-yl)methyl)-6-methyl-1-(2-methylpyrimidin-5-yl)-5-(1-(4-(2,2,2-trifluoroethyl)piperazin-1-yl)ethyl)indolizine-7-formamide], the half-inhibitory concentration (IC50) was less than 0.1 µM.

For the compound `Cc1cc(C)c(CNC(=O)c2cc3c(Br)ccn3c(C(C)N3CCOCC3)c2C)c(=O)[nH]1` (centres unmarked) [Example 54, 1-bromo-N-((4,6-dimethyl-2-oxo-1,2-dihydropyridin-3-yl)methyl)-6-methyl-5-(1-morpholinylethyl)indolizine-7-carboxamide], the half-maximal inhibitory concentration (IC50) was less than 0.1 µM.

Usually IC50 stands for the concentration needed to halve the response being measured.
